Data reported in ChEMBL document CHEMBL1782033, “Dimeric prenylated C6-C3 compounds from the stem bark of Illicium oligandrum” (2011).

Experiment: Antiinflammatory activity in rat Polymorphonuclear leukocytes assessed as inhibition of platelet-activating factor-induced beta-glucuronidase release at 10 uM
Format: functional

| Structure (SMILES) | inhibition at 10 µM |
| --- | --- |
| C[C@@H]1C(=O)O[C@H]2[C@H](O)[C@@]34[C@H]5C[C@@H](C(C)(C)C)[C@]36[C@@H](OC(=O)[C@@H]6O)O[C@@]4(C(=O)O5)[C@@]12O [GINKOLIDE B] | 83.5% |
| C=CC[C@]1(O)C(=O)C=C2O[C@H](C(C)(C)O)C[C@@]23[C@@H]2C(=O)[C@@](O)(CC=C)[C@@H](C4=C2OC(C)(C)[C@H](O)C4)[C@H]31 [ILLICIDIONE A] | 38.2% |
| C=CCC1=C[C@]2(O)C[C@H](C(C)(C)O)OC2=C(CC2=C3O[C@@H](C(C)(C)O)C[C@@]3(O)C=C(CC=C)C2=O)C1=O [ILLICIDIONE B] | 18.6% |
| C=CC[C@H]1C[C@]2(O)C[C@H](C(C)(C)O)OC2=C(CC2=C3O[C@@H](C(C)(C)O)C[C@@]3(O)C[C@H](CC=C)C2=O)C1=O [ILLICIDIONE C] | 25.3% |
